Several values for one entry are separate records, joined by “and”; a condition that tells them apart may be missing. Identical values can stand only once. Inconclusive results and toxic doses are left out.
Test system: L1210 leukemia ip in BDF1 mice, survival T/C
Assay: NCI In Vivo Anticancer Drug Screen. Data for tumor model L1210 Leukemia (intraperitoneal) in B6D2F1 (BDF1) mice
Conditions: endpoint: mean survival time, higher = longer survival
Method in brief: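 Each compound was tested against a transplantable tumor grown in mice. The endpoint was survival, with treated animals benchmarked against vehicle controls as a simple ratio.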

[1] = dose: 25.0 mg/kg/injection, schedule: Q01DX009 (ip), vehicle: saline with Tween-80
[2] = dose: 50.0 mg/kg/injection, schedule: Q01DX009 (ip), vehicle: saline with Tween-80
[3] = dose: 100.0 mg/kg/injection, schedule: Q01DX001 (ip), vehicle: Klucel (hydroxypropylcellulose) (HPC)
[4] = dose: 200.0 mg/kg/injection, schedule: Q01DX001 (ip), vehicle: Klucel (hydroxypropylcellulose) (HPC)
[5] = dose: 400.0 mg/kg/injection, schedule: Q01DX001 (ip), vehicle: Klucel (hydroxypropylcellulose) (HPC)
[6] = dose: 100.0 mg/kg/injection, schedule: Q04DX003 (ip), vehicle: saline with Tween-80
[7] = dose: 200.0 mg/kg/injection, schedule: Q04DX003 (ip), vehicle: saline with Tween-80
[8] = dose: 100.0 mg/kg/injection, schedule: Q01DX001 (ip), vehicle: saline
[9] = dose: 50.0 mg/kg/injection, schedule: Q01DX001 (ip), vehicle: carboxymethylcellulose (CMC)
[10] = dose: 100.0 mg/kg/injection, schedule: Q01DX009 (ip), vehicle: saline
[11] = dose: 200.0 mg/kg/injection, schedule: Q01DX009 (ip), vehicle: saline
[12] = dose: 400.0 mg/kg/injection, schedule: Q01DX009 (ip), vehicle: saline

c1ccc([C@H]2O[C@@H]2c2ccccc2)cc1
T/C (dose: 12.5 mg/kg/injection, schedule: Q01DX009 (ip), vehicle: saline with Tween-80): 91 % of control | T/C (dose: 12.5 mg/kg/injection, schedule: Q04DX003 (ip), vehicle: saline with Tween-80): 96 % of control | T/C [1]: 96 % of control | T/C (dose: 25.0 mg/kg/injection, schedule: Q04DX003 (ip), vehicle: saline with Tween-80): 93 % of control | T/C [2]: 94 % of control | T/C (dose: 50.0 mg/kg/injection, schedule: Q04DX003 (ip), vehicle: saline with Tween-80): 96 % of control | T/C [3]: 97 % of control | T/C (dose: 100.0 mg/kg/injection, schedule: Q04DX003 (ip), vehicle: Klucel (hydroxypropylcellulose) (HPC)): 92 % of control | T/C [4]: 101 % of control | T/C (dose: 200.0 mg/kg/injection, schedule: Q04DX003 (ip), vehicle: Klucel (hydroxypropylcellulose) (HPC)): 101 % of control | T/C [5]: 103 % of control | T/C (dose: 400.0 mg/kg/injection, schedule: Q04DX003 (ip), vehicle: Klucel (hydroxypropylcellulose) (HPC)): 97 % of control

c1ccc(C(NC2CC3CCC2C3)c2ccccc2)cc1 (stereo unspecified)
T/C (dose: 50.0 mg/kg/injection, schedule: Q01DX009 (ip), vehicle: saline sonified): 101 % of control | T/C [3]: 109 % of control | T/C (dose: 100.0 mg/kg/injection, schedule: Q01DX009 (ip), vehicle: saline sonified): 95 % of control | T/C [4]: 95 % of control | T/C (dose: 200.0 mg/kg/injection, schedule: Q01DX009 (ip), vehicle: saline sonified): 100 % of control

N#Cc1ncc(-c2ccccc2)nc1Cl
T/C [2]: 94 % of control | T/C (dose: 100.0 mg/kg/injection, schedule: Q01DX009 (ip), vehicle: saline with Tween-80): 96 % of control | T/C [6]: 97 % of control | T/C (dose: 200.0 mg/kg/injection, schedule: Q01DX009 (ip), vehicle: saline with Tween-80): 92 % of control | T/C [7]: 95 % of control

COP(=O)(OCCCCCl)C(Cl)(Cl)Cl (stereo unspecified)
T/C [8]: 102 % of control | T/C (dose: 200.0 mg/kg/injection, schedule: Q01DX001 (ip), vehicle: saline): 102 % of control | T/C (dose: 400.0 mg/kg/injection, schedule: Q01DX001 (ip), vehicle: saline): 104 % of control

COc1cc(NC(=O)N(CCCl)N=O)cc(OC)c1OC
T/C (dose: 0.12 mg/kg/injection, schedule: Q01DX009 (ip), vehicle: saline): 105 % of control | T/C (dose: 0.25 mg/kg/injection, schedule: Q01DX009 (ip), vehicle: saline): 118 % of control | T/C (dose: 0.5 mg/kg/injection, schedule: Q01DX009 (ip), vehicle: saline): 112 % of control | T/C (dose: 1.0 mg/kg/injection, schedule: Q01DX009 (ip), vehicle: saline): 115 % of control | T/C (dose: 1.5 mg/kg/injection, schedule: Q01DX001 (ip), vehicle: carboxymethylcellulose (CMC)): 111 % of control | T/C (dose: 2.5 mg/kg/injection, schedule: Q01DX009 (ip), vehicle: saline): 161 % of control | T/C (dose: 3.0 mg/kg/injection, schedule: Q01DX001 (ip), vehicle: carboxymethylcellulose (CMC)): 108 % of control | T/C (dose: 5.0 mg/kg/injection, schedule: Q01DX009 (ip), vehicle: saline): 177 % of control | T/C (dose: 6.0 mg/kg/injection, schedule: Q01DX001 (ip), vehicle: carboxymethylcellulose (CMC)): 118 % of control | T/C (dose: 10.0 mg/kg/injection, schedule: Q01DX009 (ip), vehicle: saline): 164 % of control | T/C (dose: 11.0 mg/kg/injection, schedule: Q01DX009 (ip), vehicle: saline with Tween-80): 157 % of control and 216 % of control | T/C (dose: 12.0 mg/kg/injection, schedule: Q01DX001 (ip), vehicle: carboxymethylcellulose (CMC)): 151 % of control | T/C (dose: 15.0 mg/kg/injection, schedule: Q01DX009 (ip), vehicle: saline): 164 % of control | T/C (dose: 16.6 mg/kg/injection, schedule: Q01DX009 (ip), vehicle: saline with Tween-80): 223 % of control | T/C (dose: 22.0 mg/kg/injection, schedule: Q01DX009 (ip), vehicle: saline): 216 % of control | T/C (dose: 25.0 mg/kg/injection, schedule: Q01DX001 (ip), vehicle: carboxymethylcellulose (CMC)): 252 % of control | T/C (dose: 25.0 mg/kg/injection, schedule: Q01DX001 (ip), vehicle: saline): 155 % of control | T/C [1]: 208 % of control | T/C (dose: 33.0 mg/kg/injection, schedule: Q01DX009 (ip), vehicle: saline): 178 % of control | T/C (dose: 37.5 mg/kg/injection, schedule: Q01DX001 (ip), vehicle: saline): 153 % of control | T/C (dose: 37.5 mg/kg/injection, schedule: Q01DX009 (ip), vehicle: saline with Tween-80): 110 % of control | T/C [9]: 106 % of control | T/C (dose: 50.0 mg/kg/injection, schedule: Q01DX009 (ip), vehicle: saline): 260 % of control | T/C (dose: 75.0 mg/kg/injection, schedule: Q01DX001 (ip), vehicle: carboxymethylcellulose (CMC)): 236 % of control | T/C (dose: 75.0 mg/kg/injection, schedule: Q01DX009 (ip), vehicle: saline): 173 % of control

CC[N+](C)(C)CC(C)C
T/C (dose: 75.0 mg/kg/injection, schedule: Q01DX001 (ip), vehicle: saline): 104 % of control | T/C (dose: 150.0 mg/kg/injection, schedule: Q01DX001 (ip), vehicle: saline): 107 % of control

Cc1cc(=O)[nH]c(=S)[nH]1
T/C [3]: 90 % of control | T/C [4]: 101 % of control | T/C [5]: 92 % of control

CN(N=O)C(=O)NC(=O)N(C)N=O
T/C (dose: 18.0 mg/kg/injection, schedule: Q01DX Z (ip), vehicle: carboxymethylcellulose (CMC)): 155 % of control | T/C (dose: 27.5 mg/kg/injection, schedule: Q01DX001 (ip), vehicle: carboxymethylcellulose (CMC)): 110 % of control | T/C (dose: 54.0 mg/kg/injection, schedule: Q01DX001 (ip), vehicle: carboxymethylcellulose (CMC)): 118 % of control | T/C (dose: 75.0 mg/kg/injection, schedule: Q01DX Z (ip), vehicle: carboxymethylcellulose (CMC)): 87 % of control | T/C (dose: 108.0 mg/kg/injection, schedule: Q01DX001 (ip), vehicle: carboxymethylcellulose (CMC)): 86 % of control

ClC(Cl)(Cl)c1cccc(C(Cl)(Cl)Cl)n1
T/C (dose: 100.0 mg/kg/injection, schedule: Q04DX003 (sc), vehicle: olive oil, sesame oil, peanut oil): 97 % of control and 103 % of control | T/C (dose: 200.0 mg/kg/injection, schedule: Q04DX003 (sc), vehicle: olive oil, sesame oil, peanut oil): 97 % of control and 103 % of control | T/C (dose: 400.0 mg/kg/injection, schedule: Q04DX003 (sc), vehicle: olive oil, sesame oil, peanut oil): 100 % of control and 101 % of control

COc1cc(Br)c(CCC(=O)O)cc1OC
T/C [10]: 97 % of control | T/C [6]: 96 % of control | T/C [11]: 94 % of control | T/C [7]: 114 % of control | T/C [12]: 100 % of control | T/C (dose: 400.0 mg/kg/injection, schedule: Q04DX003 (ip), vehicle: saline with Tween-80): 91 % of control

N=C(N)SCc1ccc(Cl)c(Cl)c1
T/C (dose: 50.0 mg/kg/injection, schedule: Q01DX003 (ip), vehicle: Klucel (hydroxypropylcellulose) (HPC)): 106 % of control | T/C (dose: 100.0 mg/kg/injection, schedule: Q01DX003 (ip), vehicle: Klucel (hydroxypropylcellulose) (HPC)): 101 % of control | T/C (dose: 100.0 mg/kg/injection, schedule: Q04DX003 (ip), vehicle: saline): 102 % of control | T/C (dose: 200.0 mg/kg/injection, schedule: Q04DX003 (ip), vehicle: saline): 89 % of control

OCCN1CCN(CCCN2c3ccccc3Oc3ccc(C(F)(F)F)cc32)CC1
T/C (dose: 25.0 mg/kg/injection, schedule: Q04DX003 (ip), vehicle: saline): 92 % of control | T/C (dose: 50.0 mg/kg/injection, schedule: Q04DX003 (ip), vehicle: saline): 106 % of control

CN(C)P1(N)=NP(N)(N(C)C)=NP(N)(N(C)C)=N1 (stereo unspecified)
T/C [10]: 98 % of control | T/C [11]: 95 % of control | T/C [12]: 93 % of control

CCOC(=O)CCC1(CN2c3ccccc3Sc3ccccc32)CCN(C)C1 (stereo unspecified)
T/C [8]: 87 % of control

O=C(OC1CC2CC1C1CCCC21)c1ccc([N+](=O)[O-])cc1 (stereo unspecified)
T/C [9]: 90 % of control | T/C (dose: 100.0 mg/kg/injection, schedule: Q01DX001 (ip), vehicle: carboxymethylcellulose (CMC)): 87 % of control | T/C (dose: 100.0 mg/kg/injection, schedule: Q01DX009 (ip), vehicle: Klucel (hydroxypropylcellulose) (HPC)): 104 % of control | T/C (dose: 200.0 mg/kg/injection, schedule: Q01DX001 (ip), vehicle: carboxymethylcellulose (CMC)): 92 % of control | T/C (dose: 200.0 mg/kg/injection, schedule: Q01DX009 (ip), vehicle: Klucel (hydroxypropylcellulose) (HPC)): 100 % of control | T/C (dose: 400.0 mg/kg/injection, schedule: Q01DX001 (ip), vehicle: carboxymethylcellulose (CMC)): 95 % of control | T/C (dose: 400.0 mg/kg/injection, schedule: Q01DX009 (ip), vehicle: Klucel (hydroxypropylcellulose) (HPC)): 97 % of control

Reference: PubChem BioAssay AID248 (DTP/NCI, 2004)
